Results taken from article PMC4809247 (Journal of medicinal chemistry, 2015).

Experiments:
rat mGlu5 [1] = target: T1, rat mGlu5 (Rattus norvegicus, UniProt P31424); test: Calcium mobilization mGlu5 assay; format: cell-based; conditions: calcium mobilization; average of n ≥ 3 (n = 2 where marked)
rat mGlu2 [2] = target: T2, rat mGlu2 (Rattus norvegicus, UniProt P31421); test: mGlu2 calcium mobilization assay; format: cell-based; conditions: full CRC
5-HT2B = 5-HT2B (Homo sapiens, UniProt P41595); test: 5-HT2B functional cell-based assay; conditions: agonist or antagonist
5-HT2B, sequence (P41595 whole entry, species assumed): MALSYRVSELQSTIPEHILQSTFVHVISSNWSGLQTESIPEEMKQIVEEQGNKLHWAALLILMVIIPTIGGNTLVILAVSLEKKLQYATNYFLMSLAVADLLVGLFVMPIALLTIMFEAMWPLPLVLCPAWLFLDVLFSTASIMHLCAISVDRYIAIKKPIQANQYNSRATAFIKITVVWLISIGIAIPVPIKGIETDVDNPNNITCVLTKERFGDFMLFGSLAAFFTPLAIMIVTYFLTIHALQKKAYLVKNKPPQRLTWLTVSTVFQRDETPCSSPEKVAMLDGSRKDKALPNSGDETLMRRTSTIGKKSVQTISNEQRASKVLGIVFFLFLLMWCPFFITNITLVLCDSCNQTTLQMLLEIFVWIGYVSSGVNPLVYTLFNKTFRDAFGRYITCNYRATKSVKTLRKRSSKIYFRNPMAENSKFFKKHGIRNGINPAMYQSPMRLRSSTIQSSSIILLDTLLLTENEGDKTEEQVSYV

[3] = Mouse IP single time point tissue distribution; conditions: in vivo, 10 mg/kg, plasma concentration, 30 min post dose, n = 3
Mouse IP PK time course = format: in vivo; conditions: 10 mg/kg dose in marble burying study, estimated from DMPK data
immobility time [4] = test: Forced swim test; format: in vivo, rat; conditions: 56.6 mg/kg (highest dose); male Sprague–Dawley rats; 30 min pretreatment; 6 min session; p < 0.05 vs vehicle
other mGlus = format: cell-based; conditions: 10 μM compound, fold-shift experiments
[5] = test system: panel of 68 clinically relevant GPCRs, ion channels, kinases, and transporters; format: binding; conditions: 10 μM; 68 targets
rat mGlu3 [6] = target: T3, rat mGlu3 (Rattus norvegicus, UniProt P31422); conditions: calcium mobilization; average of n ≥ 3
T3 sequence (P31422 23-879): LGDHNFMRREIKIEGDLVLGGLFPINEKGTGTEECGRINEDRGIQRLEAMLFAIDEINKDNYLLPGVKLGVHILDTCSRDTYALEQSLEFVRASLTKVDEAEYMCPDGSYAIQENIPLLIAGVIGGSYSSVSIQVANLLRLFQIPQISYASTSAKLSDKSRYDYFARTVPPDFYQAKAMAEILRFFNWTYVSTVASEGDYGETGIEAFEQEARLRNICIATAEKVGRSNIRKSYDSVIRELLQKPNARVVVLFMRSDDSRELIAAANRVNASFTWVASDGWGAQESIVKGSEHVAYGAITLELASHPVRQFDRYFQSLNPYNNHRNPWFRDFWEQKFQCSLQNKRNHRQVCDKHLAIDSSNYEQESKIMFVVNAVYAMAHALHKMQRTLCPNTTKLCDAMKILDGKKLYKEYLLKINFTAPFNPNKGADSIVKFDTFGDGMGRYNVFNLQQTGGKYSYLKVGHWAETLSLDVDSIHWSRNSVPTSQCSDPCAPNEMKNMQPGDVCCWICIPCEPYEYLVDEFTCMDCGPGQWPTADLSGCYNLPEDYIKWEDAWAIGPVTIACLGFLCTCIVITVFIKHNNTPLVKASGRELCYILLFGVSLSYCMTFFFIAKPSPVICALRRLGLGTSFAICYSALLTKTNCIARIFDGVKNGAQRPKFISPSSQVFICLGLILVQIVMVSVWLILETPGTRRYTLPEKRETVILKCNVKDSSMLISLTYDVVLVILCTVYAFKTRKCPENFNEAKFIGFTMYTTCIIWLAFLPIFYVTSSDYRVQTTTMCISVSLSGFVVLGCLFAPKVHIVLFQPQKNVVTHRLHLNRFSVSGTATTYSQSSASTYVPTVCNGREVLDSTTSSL

marble burying [7] = test: Marble burying assay in mice; conditions: 56.6 mg/kg; male CD-1 mice; 15 min pretreatment
mGlu3 = mGlu3 (Rattus norvegicus, UniProt P31422); conditions: multiple concentrations of compound
mGlu3, sequence (P31422 23-879): as above

marble burying [8] = conditions: cited from earlier work
immobility time [9] = conditions: cited from earlier work
rat mGlu5 [10] = target: T1, rat mGlu5; conditions: cited from earlier work
rat mGlu2 [11] = target: T2, rat mGlu2; conditions: cited from earlier work
[12] = Intrinsic clearance in rat liver microsomes; format: in vitro ADME; conditions: predicted hepatic clearance based on intrinsic clearance in rat liver microsomes
rat mGlu3 [13] = target: T3, rat mGlu3; test: cell-based
[14] = Rat cassette PK study, IV dosing; conditions: in vivo, 0.2 mg/kg

T2 sequence (P31421 19-872): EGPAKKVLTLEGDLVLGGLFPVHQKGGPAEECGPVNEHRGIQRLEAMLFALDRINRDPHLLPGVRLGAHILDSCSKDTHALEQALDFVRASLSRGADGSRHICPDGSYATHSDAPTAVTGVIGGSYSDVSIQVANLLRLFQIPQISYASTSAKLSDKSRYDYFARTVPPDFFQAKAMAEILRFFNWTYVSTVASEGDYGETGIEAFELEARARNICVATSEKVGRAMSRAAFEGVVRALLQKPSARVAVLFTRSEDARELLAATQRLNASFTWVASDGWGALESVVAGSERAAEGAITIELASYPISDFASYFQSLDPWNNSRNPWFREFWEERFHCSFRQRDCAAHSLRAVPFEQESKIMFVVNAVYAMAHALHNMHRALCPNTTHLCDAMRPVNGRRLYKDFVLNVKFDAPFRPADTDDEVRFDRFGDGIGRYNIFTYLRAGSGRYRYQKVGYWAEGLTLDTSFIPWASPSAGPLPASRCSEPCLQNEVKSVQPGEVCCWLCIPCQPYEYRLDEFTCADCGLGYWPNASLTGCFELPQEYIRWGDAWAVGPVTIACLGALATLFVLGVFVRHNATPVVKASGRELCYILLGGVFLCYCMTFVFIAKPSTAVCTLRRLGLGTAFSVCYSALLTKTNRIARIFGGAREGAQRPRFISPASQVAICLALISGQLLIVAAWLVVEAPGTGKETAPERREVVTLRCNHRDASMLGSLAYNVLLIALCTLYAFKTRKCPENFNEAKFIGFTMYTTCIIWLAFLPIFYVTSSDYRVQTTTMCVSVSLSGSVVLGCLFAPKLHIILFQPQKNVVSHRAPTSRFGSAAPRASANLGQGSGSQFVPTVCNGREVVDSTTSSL
T1 sequence (P31424 21-1203): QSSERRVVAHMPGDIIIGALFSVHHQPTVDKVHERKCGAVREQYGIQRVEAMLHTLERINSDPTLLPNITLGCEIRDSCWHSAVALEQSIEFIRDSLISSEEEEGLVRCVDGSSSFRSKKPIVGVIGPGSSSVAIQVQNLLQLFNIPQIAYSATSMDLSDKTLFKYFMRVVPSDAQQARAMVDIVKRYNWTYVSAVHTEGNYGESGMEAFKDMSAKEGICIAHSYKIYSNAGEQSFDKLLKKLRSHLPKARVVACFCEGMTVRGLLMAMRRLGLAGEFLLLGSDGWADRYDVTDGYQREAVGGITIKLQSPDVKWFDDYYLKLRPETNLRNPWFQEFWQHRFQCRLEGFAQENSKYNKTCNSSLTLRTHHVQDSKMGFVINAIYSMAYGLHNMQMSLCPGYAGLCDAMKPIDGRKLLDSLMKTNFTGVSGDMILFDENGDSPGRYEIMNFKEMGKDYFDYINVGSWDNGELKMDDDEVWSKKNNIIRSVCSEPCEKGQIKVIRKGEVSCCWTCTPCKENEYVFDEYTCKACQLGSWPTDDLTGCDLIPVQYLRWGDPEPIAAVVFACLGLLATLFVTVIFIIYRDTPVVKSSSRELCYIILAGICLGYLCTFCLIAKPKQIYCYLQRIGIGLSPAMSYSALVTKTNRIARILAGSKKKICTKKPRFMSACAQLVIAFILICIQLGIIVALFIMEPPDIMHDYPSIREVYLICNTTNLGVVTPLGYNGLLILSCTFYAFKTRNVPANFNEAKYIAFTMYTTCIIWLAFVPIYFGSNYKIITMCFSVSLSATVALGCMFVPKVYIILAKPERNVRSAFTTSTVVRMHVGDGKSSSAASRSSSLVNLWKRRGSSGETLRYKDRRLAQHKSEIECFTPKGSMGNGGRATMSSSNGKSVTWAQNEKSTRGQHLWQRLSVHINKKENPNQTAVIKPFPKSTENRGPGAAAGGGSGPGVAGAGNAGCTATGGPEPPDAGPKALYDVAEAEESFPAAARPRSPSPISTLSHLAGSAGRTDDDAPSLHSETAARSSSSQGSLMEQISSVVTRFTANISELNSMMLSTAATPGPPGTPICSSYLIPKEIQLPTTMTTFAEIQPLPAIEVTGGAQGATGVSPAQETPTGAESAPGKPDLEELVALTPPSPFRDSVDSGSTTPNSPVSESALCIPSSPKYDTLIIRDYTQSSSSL

## C[C@@H]1CN(c2cccnc2F)C(=O)c2cc(COc3ccc(Cl)cn3)nn21 [Compound 106, (R)-2-(((5-Chloropyridin-2-yl)oxy)methyl)-5-(2-fluoropyridin-3-yl)-7-methyl-6,7-dihydropyrazolo[1,5-a]pyrazin-4(5H)-one]
Rat mGlu5 [1]
  mGlu5 pEC50 (± SEM): <4.5
Rat mGlu2 [2]
  mGlu2: inactive up to the top concentration tested: > 30 µM
5-HT2B
  5-HT2B functional activity: no activity up to: > 10 µM
[3]
  concentration at 30 min: 2590 ± 290 nM
Mouse IP PK time course
  estimated peak CNS unbound exposure: 564 nM
Immobility time [4]
  decrease in immobility time in FST: significant effects in decreasing immobility time
Other mGlus
  effect on the orthosteric agonist CRC, other mGlus: No significant effect
[5]
  significant responses (>50% inhibition of radioligand binding) in panel: only a single significant response
Rat mGlu3 [6]
  mGlu3 pIC50 (± SEM): 6.41 ± 0.05
Marble burying [7]
  inhibition of marble burying at highest dose: essentially complete inhibition

## N#Cc1cc(C2=Nc3ccc(Br)cc3NC(=O)C2)ccn1 [Compound 111]
mGlu3
  effect on the glutamate CRC (progressive fold-shift): characteristic rightward shift and depressed glutamate maximum

## N[C@](CC1c2ccccc2Oc2ccccc21)(C(=O)O)[C@H]1C[C@@H]1C(=O)O [Compound 1]
Marble burying [8]
  inhibition of marble burying: previously shown to inhibit marble burying
Immobility time [9]
  efficacy in FST: efficacy

## COc1ccc(C#Cc2ccc(C(=O)N3CCC[C@@H](O)C3)c(F)c2)cc1 [Compound 8]
Rat mGlu5 [10]
  mGlu5 activity: devoid of both mGlu2 and mGlu5 activity
Rat mGlu2 [11]
  mGlu2 activity: devoid of both mGlu2 and mGlu5 activity

## C[C@@H]1CN(c2cc(F)cc(C#N)c2)C(=O)c2cc(COc3ccc(Cl)cn3)nn21 [Compound 99]
[12]
  rat CLhep: 47.7 mL/min/kg
Rat mGlu3 [13]
  IC50: 529 nM
[14]
  half-life: > 180 min

## N[C@]1(C(=O)O)[C@H]2[C@@H](C[C@H]1OCc1ccc(Cl)c(Cl)c1)[C@]2(F)C(=O)O [Compound 2]
Marble burying [8]
  inhibition of marble burying: previously shown to inhibit marble burying
Immobility time [9]
  efficacy in FST: efficacy

## COc1ccc(C#Cc2ccc(C(=O)N3CCC[C@@H](CO)C3)cc2)cc1 [Compound 7]
Rat mGlu2 [11]
  selectivity versus mGlu2: > 15 fold

## C[C@@H]1CN(c2ccc(F)cc2)C(=O)c2cc(COc3ccc(F)cc3)nn21 [Compound 24]
Rat mGlu5 [1]
  mGlu5 pEC50 (± SEM): 7.03 ± 0.05
Rat mGlu3 [6]
  mGlu3 pIC50 (± SEM): 6.34 ± 0.04
[14]
  half-life: > 90 min

## C[C@@H]1CN(c2ccc(F)cc2)C(=O)c2cc(COc3ccccn3)nn21 [Compound 10]
Rat mGlu2 [2]
  mGlu2: inactive up to the top concentration tested: > 30 µM

## C[C@@H]1CN(c2ccc(F)cc2)C(=O)c2cc(COc3ccc(Cl)cn3)nn21 [Compound 48]
[14]
  half-life: ~120 min
